Activity calls are given as the source filed them. The rule behind the calls is not given here.
Tests used:
Staphylococcus aureus [1] = test: Antibacterial activity against methicillin-resistant Staphylococcus aureus clinical isolate M-8 incubated for 16 to 18 hrs CLSI based by microbroth dilution assay; type: functional; details: time 16-18 hrs
[2] = Selectivity index, ratio of HC50 for sheep erythrocytes to MIC for Staphylococcus aureus ATCC 29213; type: toxicity; details: read-out: Selectivity Index
[3] = Hemolytic activity in sheep erythrocytes incubated for 1 hr by absorbance based assay; type: toxicity, cell-based, Ovis aries, Erythrocyte
Escherichia coli = test: Antibacterial activity against Escherichia coli ATCC 25922 incubated for 16 to 18 hrs CLSI based by microbroth dilution assay; type: functional; details: time 16-18 hrs
Staphylococcus aureus [4] = test: Antibacterial activity against methicillin-resistant Staphylococcus aureus clinical isolate M-10 incubated for 16 to 18 hrs CLSI based by microbroth dilution assay; type: functional; details: time 16-18 hrs
Staphylococcus aureus [5] = test: Bactericidal activity against Staphylococcus aureus ATCC 29213 assessed as fluorescent signal at MIC incubated for 20 mins; type: functional, organism-based
Staphylococcus aureus [6] = test: Antibacterial activity against Staphylococcus aureus ATCC 29213 incubated for 16 to 18 hrs CLSI based by microbroth dilution assay; type: functional; details: time 16-18 hrs
Staphylococcus aureus [7] = test: Antibacterial activity against methicillin-resistant Staphylococcus aureus clinical isolate M-4 incubated for 16 to 18 hrs CLSI based by microbroth dilution assay; type: functional; details: time 16-18 hrs
Staphylococcus aureus [8] = test: Antibacterial activity against methicillin-resistant Staphylococcus aureus clinical isolate M-9 incubated for 16 to 18 hrs CLSI based by microbroth dilution assay; type: functional; details: time 16-18 hrs
Staphylococcus aureus [9] = test: Antibacterial activity against methicillin-resistant Staphylococcus aureus clinical isolate M-7 incubated for 16 to 18 hrs CLSI based by microbroth dilution assay; type: functional; details: time 16-18 hrs
Staphylococcus aureus [10] = test: Antibacterial activity against methicillin-resistant Staphylococcus aureus clinical isolate M-5 incubated for 16 to 18 hrs CLSI based by microbroth dilution assay; type: functional; details: time 16-18 hrs
Staphylococcus aureus [11] = test: Antibacterial activity against methicillin-resistant Staphylococcus aureus clinical isolate M-3 incubated for 16 to 18 hrs CLSI based by microbroth dilution assay; type: functional; details: time 16-18 hrs
Staphylococcus aureus [12] = test: Antibacterial activity against methicillin-resistant Staphylococcus aureus clinical isolate M-6 incubated for 16 to 18 hrs CLSI based by microbroth dilution assay; type: functional; details: time 16-18 hrs
Staphylococcus aureus [13] = test: Antibacterial activity against methicillin-resistant Staphylococcus aureus clinical isolate M-1 incubated for 16 to 18 hrs CLSI based by microbroth dilution assay; type: functional; details: time 16-18 hrs
Staphylococcus aureus [14] = test: Antibacterial activity against methicillin-resistant Staphylococcus aureus clinical isolate M-2 incubated for 16 to 18 hrs CLSI based by microbroth dilution assay; type: functional; details: time 16-18 hrs
Staphylococcus aureus [15] = test: Bactericidal activity against Staphylococcus aureus ATCC 29213 assessed as increase in fluorescence intensity at MIC incubated for 180 mins; type: functional, organism-based
Staphylococcus aureus [16] = test: Antibacterial activity against methicillin-resistant Staphylococcus aureus clinical isolate M-4 infected in KM mouse assessed as survival rate of bacteria at 5 mg/kg, sc measured after 24 hrs relative to control; type: functional
[17] = Toxicity in KM mouse infected with methicillin-resistant Staphylococcus aureus clinical isolate M-4 assessed as histopathological abnormality in kidneys at 5 mg/kg, sc measured after 24 hrs by H and E staining based analysis; type: organism-based; details: in vivo
[18] = Toxicity in KM mouse infected with methicillin-resistant Staphylococcus aureus clinical isolate M-4 assessed as histopathological abnormality in spleen at 5 mg/kg, sc measured after 24 hrs by H and E staining based analysis; type: organism-based; details: in vivo
[19] = Toxicity in KM mouse infected with methicillin-resistant Staphylococcus aureus clinical isolate M-4 assessed as histopathological abnormality in heart at 5 mg/kg, sc measured after 24 hrs by H and E staining based analysis; type: organism-based; details: in vivo
Staphylococcus aureus [20] = test: Bactericidal activity against Staphylococcus aureus ATCC 29213 at 8 times MIC incubated upto 8 hrs by time kill assay; type: functional, organism-based
[21] = Toxicity in KM mouse infected with methicillin-resistant Staphylococcus aureus clinical isolate M-4 assessed as histopathological abnormality in liver at 5 mg/kg, sc measured after 24 hrs by H and E staining based analysis; type: organism-based; details: in vivo
Staphylococcus aureus [22] = test: Bactericidal activity against methicillin-resistant Staphylococcus aureus clinical isolate M-4 at 8 times MIC incubated upto 8 hrs by time kill assay; type: functional, organism-based
[23] = Toxicity in KM mouse infected with methicillin-resistant Staphylococcus aureus clinical isolate M-4 assessed as histopathological abnormality in lungs at 5 mg/kg, sc measured after 24 hrs by H and E staining based analysis; type: organism-based; details: in vivo

| Structure (SMILES) | MIC (Staphylococcus aureus [1]) | selectivity ratio [2] | HC50 at 1 h [3] | MIC (Escherichia coli) | MIC (Staphylococcus aureus [4]) | MIC (Staphylococcus aureus [6]) | MIC (Staphylococcus aureus [7]) | MIC (Staphylococcus aureus [8]) | MIC (Staphylococcus aureus [9]) | MIC (Staphylococcus aureus [10]) | MIC (Staphylococcus aureus [11]) | MIC (Staphylococcus aureus [12]) | MIC (Staphylococcus aureus [13]) | MIC (Staphylococcus aureus [14]) | also measured |
| --- | --- | --- | --- | --- | --- | --- | --- | --- | --- | --- | --- | --- | --- | --- | --- |
| CCCCCNC(=O)C[N+](C)(C)CCCn1c(-c2ccc(N(C)C)cc2)nc2c3ccccc3c3ccccc3c21.[Br-] | 8 µg/mL | > 80 | > 640 µg/mL | 64 µg/mL | 8 µg/mL | 8 µg/mL | 4 µg/mL | 4 µg/mL | 4 µg/mL | 8 µg/mL | 8 µg/mL | 8 µg/mL | 8 µg/mL | 8 µg/mL | Activity (Staphylococcus aureus [5]): Active |
| CN(C)c1ccc(-c2nc3c4ccccc4c4ccccc4c3n2CCCCBr)cc1 | > 64 µg/mL | – | – | > 64 µg/mL | > 64 µg/mL | > 64 µg/mL | > 64 µg/mL | > 64 µg/mL | > 64 µg/mL | > 64 µg/mL | > 64 µg/mL | > 64 µg/mL | > 64 µg/mL | > 64 µg/mL | Activity (Staphylococcus aureus [15]): inactive |
| CCN(CC)C(=O)C[N+](C)(C)CCCCCn1c(-c2ccc(N(C)C)cc2)nc2c3ccccc3c3ccccc3c21.[Br-] | 8 µg/mL | 67.8 | 1080 µg/mL | 128 µg/mL | 8 µg/mL | 16 µg/mL | 8 µg/mL | 8 µg/mL | 8 µg/mL | 8 µg/mL | 8 µg/mL | 8 µg/mL | 8 µg/mL | 8 µg/mL | – |
| CN[C@H](CC(C)C)C(=O)N[C@H]1C(=O)N[C@@H](CC(N)=O)C(=O)N[C@H]2C(=O)N[C@H]3C(=O)N[C@H](C(=O)N[C@H](C(=O)O)c4cc(O)cc(O)c4-c4cc3ccc4O)[C@H](O)c3ccc(c(Cl)c3)Oc3cc2cc(c3O[C@@H]2O[C@H](CO)[C@@H](O)[C@H](O)[C@H]2O[C@H]2C[C@](C)(N)[C@H](O)[C@H](C)O2)Oc2ccc(cc2Cl)[C@H]1O [VANCOMYCIN] | – | – | – | – | – | – | – | – | – | – | – | – | – | – | survival at 5 mg/kg (Staphylococcus aureus [16]): 2.15%; Activity [17]: Non-Toxic; Activity [18]: Non-Toxic; Activity [19]: Non-Toxic; Activity (Staphylococcus aureus [20]): Active; Activity [21]: Non-Toxic; Activity (Staphylococcus aureus [22]): Active; Activity [23]: Non-Toxic |
| CC(C)N(C(=O)C[N+](C)(C)CCCCn1c(-c2ccc(N(C)C)cc2)nc2c3ccccc3c3ccccc3c21)C(C)C.[Br-] | 8 µg/mL | > 80 | > 640 µg/mL | > 128 µg/mL | 8 µg/mL | 8 µg/mL | 8 µg/mL | 8 µg/mL | 8 µg/mL | 8 µg/mL | 8 µg/mL | 8 µg/mL | 8 µg/mL | 8 µg/mL | – |
| CCNC(=O)C[N+](C)(C)CCCCCn1c(-c2ccc(N(C)C)cc2)nc2c3ccccc3c3ccccc3c21.[Br-] | 32 µg/mL | > 40 | > 640 µg/mL | 128 µg/mL | 32 µg/mL | 16 µg/mL | 32 µg/mL | 32 µg/mL | 16 µg/mL | 32 µg/mL | 32 µg/mL | 32 µg/mL | 32 µg/mL | 32 µg/mL | – |
| CCCCN(CCCC)C(=O)C[N+](C)(C)CCCn1c(-c2ccc(N(C)C)cc2)nc2c3ccccc3c3ccccc3c21.[Br-] | 4 µg/mL | > 80 | > 640 µg/mL | 64 µg/mL | 4 µg/mL | 8 µg/mL | 4 µg/mL | 4 µg/mL | 4 µg/mL | 4 µg/mL | 4 µg/mL | 4 µg/mL | 4 µg/mL | 4 µg/mL | – |
| CC(C)CN(CC(C)C)C(=O)C[N+](C)(C)CCCCn1c(-c2ccc(N(C)C)cc2)nc2c3ccccc3c3ccccc3c21.[Br-] | 2 µg/mL | > 79.1 | 158 µg/mL | 64 µg/mL | 2 µg/mL | 2 µg/mL | 1 µg/mL | 2 µg/mL | 1 µg/mL | 2 µg/mL | 1 µg/mL | 1 µg/mL | 2 µg/mL | 2 µg/mL | – |
| CN(C)c1ccc(-c2nc3c4ccccc4c4ccccc4c3n2CCC[N+](C)(C)CC(=O)N2CCSCC2)cc1.[Br-] | 128 µg/mL | 5.6 | 357 µg/mL | > 128 µg/mL | 64 µg/mL | 64 µg/mL | 64 µg/mL | 64 µg/mL | 32 µg/mL | 64 µg/mL | 64 µg/mL | 64 µg/mL | 64 µg/mL | 64 µg/mL | – |
| CCCCCCNC(=O)C[N+](C)(C)CCCn1c(-c2ccc(N(C)C)cc2)nc2c3ccccc3c3ccccc3c21.[Br-] | 128 µg/mL | > 10 | > 640 µg/mL | > 128 µg/mL | 64 µg/mL | 64 µg/mL | 64 µg/mL | 64 µg/mL | 64 µg/mL | 64 µg/mL | 64 µg/mL | 128 µg/mL | 64 µg/mL | 128 µg/mL | – |
| CN(C)c1ccc(-c2nc3c4ccccc4c4ccccc4c3n2CCCCC[N+](C)(C)CC(=O)N2CCSCC2)cc1.[Br-] | 4 µg/mL | > 160 | > 640 µg/mL | > 128 µg/mL | 8 µg/mL | 4 µg/mL | 4 µg/mL | 4 µg/mL | 4 µg/mL | 8 µg/mL | 4 µg/mL | 4 µg/mL | 8 µg/mL | 8 µg/mL | – |
| CCCCCNC(=O)C[N+](C)(C)CCCCCn1c(-c2ccc(N(C)C)cc2)nc2c3ccccc3c3ccccc3c21.[Br-] | 2 µg/mL | 286 | 572 µg/mL | 64 µg/mL | 4 µg/mL | 2 µg/mL | 2 µg/mL | 2 µg/mL | 2 µg/mL | 2 µg/mL | 2 µg/mL | 2 µg/mL | 4 µg/mL | 2 µg/mL | – |
| CCCNC(=O)C[N+](C)(C)CCCn1c(-c2ccc(N(C)C)cc2)nc2c3ccccc3c3ccccc3c21.[Br-] | 64 µg/mL | > 20 | > 640 µg/mL | > 128 µg/mL | 64 µg/mL | 32 µg/mL | 32 µg/mL | 32 µg/mL | 32 µg/mL | 64 µg/mL | 64 µg/mL | 64 µg/mL | 64 µg/mL | 32 µg/mL | – |
| CCN(CC)C(=O)C[N+](C)(C)CCCCn1c(-c2ccc(N(C)C)cc2)nc2c3ccccc3c3ccccc3c21.[Br-] | 32 µg/mL | > 640 | 16 µg/mL | > 128 µg/mL | 16 µg/mL | 16 µg/mL | 16 µg/mL | 16 µg/mL | 16 µg/mL | 16 µg/mL | 16 µg/mL | 16 µg/mL | 16 µg/mL | 16 µg/mL | – |
